The values below come from patent US20180334453A1, “ISOINDOLINE DERIVATIVES” (VIIV HEALTHCARE UK LIMITED, priority 2015, published 2018).

The test system of this assay is HIV. Kind of assay: MT4 assay (anti-HIV activity). It counts as cell-based. As to conditions: HTLV-1 transformed cell line MT-4; luciferase activity measured 96 hours later (cell titer glo); 10 point dose response. How it is done:
Antiviral HIV activity and cytotoxicity values for compounds of the invention from Table 1 were measured in parallel in the HTLV-1 transformed cell line MT-4 based on the method previously described (Hazen et al., 2007, In vitro antiviral activity of the novel, tyrosyl-based human immunodeficiency virus (HIV) type 1 protease inhibitor brecanavir (GW640385) in combination with other antiretrovirals and against a panel of protease inhibitor-resistant HIV (Hazen et al., “In vitro antiviral activity of the novel, tyrosyl-based human immunodeficiency virus (HIV) type 1 protease inhibitor brecanavir (GW640385) in combination with other antiretrovirals and against a panel of protease inhibitor-resistant HIV”, Antimicrob. Agents Chemother. 2007, 51: 3147-3154; and Pauwels et al., “Sensitive and rapid assay on MT-4 cells for the detection of antiviral compounds against the AIDS virus”, J. of Virological Methods 1987, 16: 171-185).
Luciferase activity was measured 96 hours later by adding a cell titer glo (Promega, Madison, Wis.). Percent inhibition of cell protection data was plotted relative to no compound control. Under the same condition, cytotoxicity of the compounds was determined using cell titer Glo™ (Promega, Madison, Wis.). IC50 s were determined from a 10 point dose response curve using 3-4-fold serial dilution for each compound, which spans a concentration range >1000 fold.
These values are plotted against the molar compound concentrations using the standard four parameter logistic equation:
y=((Vmax*x̂n)/(K̂n+x̂n))+Y2
Y2=minimum y n=slope factor
Vmax=maximum y x=compound concentration [M]
For orientation: Cellular ATP, detected with luciferase, serves as a proxy for viable cell number.
Turning to `Cc1c(-c2c([C@H](OC(C)(C)C)C(=O)O)c(C(F)(F)F)c3c(c2C(F)(F)F)CN(C(=O)c2cccc(F)c2)C3)cc(F)c2c1CCCO2` (atropisomer, axis not shown; (M)) [Example 4, (2S)(M)-2-(tert-butoxy)-2-(6-(8-fluoro-5-methylchroman-6-yl)-2-(3-fluorobenzoyl)-4,7-bisarifluoromethasoindolin-5-yl)acetic Acid], the IC50 (usually the concentration needed to halve the response being measured) was determined as 4 nM. With `Cc1ccc(-c2c([C@H](OC(C)(C)C)C(=O)O)c(C(F)(F)F)c3c(c2C(F)(F)F)CN(C(=O)OCc2ccccc2)C3)cc1` [Example 2, (S)-2-(2-((benzyloxy)carbonyI)-6-(p-tolyl)-4,7-bis(trifluoromethyl)isoindolin-5-yl)-2-(tert-butoxy)acetic Acid] the figure was 4400 nM; with `CCO[C@H](C(=O)O)c1c(C)c2c(c(C)c1-c1cc(F)c3c(c1C)CCCO3)CN(C(=O)c1cccc(F)c1)C2` (atropisomer, axis not shown; (M)) [Example 1, (2S)(M)-2-ethoxy-2-((R)-6-(8-fluoro-5-methylchroman-6-yl)-2-(3-fluorobenzoyl)-4,7-dimethylisoindolin-5-yl)acetic Acid], 145 nM; with `Cc1ccc(-c2c([C@H](OC(C)(C)C)C(=O)O)c(C(F)(F)F)c3c(c2C(F)(F)F)CN(C(=O)c2cccc(F)c2)C3)cc1` [Example 3], 5 nM.
